Test results taken from ChEMBL document CHEMBL1201862, “PubChem BioAssay data set” (2004).
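Method: 48-hour compound exposure of cells in 96-well plates, five concentrations, linear interpolation of endpoints. GI50: concentration for 50% inhibition of growth.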 Activity calls are given as the source filed them. No stated cut-off is given here; in the data, active = GI50 up to about 1.1 µM and inactive = higher.

Experiments:
Assay in all cases: NCI anticancer screen, dose series, 48 h
[1] = tested on: OVCAR-8
[2] = tested on: SF-539
[3] = tested on: KM12
[4] = tested on: SK-MEL-28
[5] = tested on: SK-MEL-2
[6] = tested on: HOP-92
[7] = tested on: OVCAR-5
[8] = tested on: K562
[9] = tested on: NCI-H460
[10] = tested on: NCI-H226
[11] = tested on: NCI-H522
[12] = tested on: SW-620
[13] = tested on: OVCAR-3
[14] = tested on: SNB-19
[15] = tested on: MOLT-4
[16] = tested on: SK-MEL-5
[17] = tested on: ACHN
[18] = tested on: SNB-75
[19] = tested on: LOX IMVI
[20] = tested on: SF-268

With `CCN1CCC(O)(/C=C/c2ccc(C)cc2)C(C(=O)/C=C/c2ccc(C)cc2)C1` (stereo not given) the GI50 [1] was 2.81 µM (inactive), the GI50 [2] was 3.61 µM (inactive) and the GI50 [3] was 2.19 µM (inactive). For the same compound, the GI50 [4] was 5.86 µM (inactive), the GI50 [5] was 3.75 µM (inactive) and the GI50 [6] was 6.81 µM (inactive). The GI50 [7] was 10.5 µM (inactive), the GI50 [8] was 2.36 µM (inactive) and the GI50 [9] was 4.45 µM (inactive). The GI50 [10] was 15.5 µM (inactive), the GI50 [11] was 1.7 µM (inactive) and the GI50 [12] was 1.75 µM (inactive). For the same compound, the GI50 [13] was 6.32 µM (inactive), the GI50 [14] was 9.42 µM (inactive) and the GI50 [15] was 1.63 µM (inactive). For the same compound, the GI50 [16] was 3.43 µM (inactive), the GI50 [17] was 3.7 µM (inactive) and the GI50 [18] was 9.79 µM (inactive). The GI50 [19] was 1.31 µM (inactive) and the GI50 [20] was 9.57 µM (inactive).
`O=C(O)c1cc(-c2ccc3cc4c(cc3c2)OCO4)nc2ccccc12` was tested, and the GI50 [1] was 37.1 µM (inactive), the GI50 [2] was 92.9 µM (inactive) and the GI50 [3] was > 100 µM (inactive). For the same compound, the GI50 [4] was 47.5 µM (inactive), the GI50 [5] was 62.7 µM (inactive) and the GI50 [6] was 20.1 µM (inactive). The GI50 [7] was 28.5 µM (inactive), the GI50 [8] was 32.5 µM (inactive) and the GI50 [9] was 12.9 µM (inactive). The GI50 [10] was 42.4 µM (inactive), the GI50 [11] was 35.3 µM (inactive) and the GI50 [12] was 45.2 µM (inactive). For the same compound, the GI50 [13] was 41.6 µM (inactive), the GI50 [14] was 25.7 µM (inactive) and the GI50 [15] was 28.8 µM (inactive). The GI50 [16] was 24 µM (inactive), the GI50 [17] was 37.8 µM (inactive) and the GI50 [18] was 49.7 µM (inactive). For the same compound, the GI50 [19] was 29.3 µM (inactive) and the GI50 [20] was 28.6 µM (inactive).
For `CC(=O)N/C(=C\c1ccc(Cc2nc3c([nH]2)C(=O)c2ccccc2C3=O)cc1)c1nc2c([nH]1)C(=O)c1ccccc1C2=O`, the GI50 [1] was 43.5 µM (inactive), the GI50 [2] was > 100 µM (inactive) and the GI50 [3] was > 100 µM (inactive). For the same compound, the GI50 [4] was > 100 µM (inactive), the GI50 [5] was > 100 µM (inactive) and the GI50 [6] was > 100 µM (inactive). For the same compound, the GI50 [7] was > 100 µM (inactive), the GI50 [8] was > 100 µM (inactive) and the GI50 [9] was > 100 µM (inactive). For the same compound, the GI50 [10] was > 100 µM (inactive), the GI50 [11] was > 100 µM (inactive) and the GI50 [12] was > 100 µM (inactive). The GI50 [13] was > 100 µM (inactive), the GI50 [14] was > 100 µM (inactive) and the GI50 [15] was > 100 µM (inactive). For the same compound, the GI50 [16] was > 100 µM (inactive), the GI50 [17] was > 100 µM (inactive) and the GI50 [18] was 86.3 µM (inactive). The GI50 [19] was > 100 µM (inactive) and the GI50 [20] was > 100 µM (inactive).
In the case of `COc1ccccc1C(=O)NCC1CCCN2CCCCC12` (stereo not given), the GI50 [1] is reported as > 100 µM (inactive), the GI50 [2] is reported as > 100 µM (inactive) and the GI50 [3] is reported as > 100 µM (inactive). The GI50 [4] was > 100 µM (inactive), the GI50 [5] was > 100 µM (inactive) and the GI50 [6] was > 100 µM (inactive). For the same compound, the GI50 [7] was > 100 µM (inactive), the GI50 [8] was > 100 µM (inactive) and the GI50 [9] was > 100 µM (inactive). For the same compound, the GI50 [10] was > 100 µM (inactive), the GI50 [11] was > 100 µM (inactive) and the GI50 [12] was > 100 µM (inactive). For the same compound, the GI50 [13] was > 100 µM (inactive), the GI50 [14] was > 100 µM (inactive) and the GI50 [15] was > 100 µM (inactive). The GI50 [16] was > 100 µM (inactive), the GI50 [17] was > 100 µM (inactive) and the GI50 [18] was > 100 µM (inactive). For the same compound, the GI50 [19] was > 100 µM (inactive) and the GI50 [20] was > 100 µM (inactive).
`Nc1cc2c(nc3c4ccccc4c(N)cc3[n+]2-c2cccc3ccccc23)c2ccccc12.Nc1cc2c(nc3c4ccccc4ccc3[n+]2-c2cccc3ccccc23)c2ccccc12` was tested, and the GI50 [1] was 0.714 µM (active), the GI50 [2] was 7.74 µM (inactive) and the GI50 [3] was 1.31 µM (inactive). For the same compound, the GI50 [4] was 7.06 µM (inactive), the GI50 [5] was 1.57 µM (inactive) and the GI50 [6] was 1.2 µM (inactive). The GI50 [7] was 7.28 µM (inactive), the GI50 [8] was 0.448 µM (active) and the GI50 [9] was 0.377 µM (active). For the same compound, the GI50 [10] was 12.2 µM (inactive), the GI50 [11] was 1.25 µM (inactive) and the GI50 [12] was 1.55 µM (inactive). The GI50 [13] was 0.593 µM (active), the GI50 [14] was 4.56 µM (inactive) and the GI50 [15] was 0.75 µM (active). For the same compound, the GI50 [16] was 1.7 µM (inactive), the GI50 [17] was 2.18 µM (inactive) and the GI50 [18] was 1.68 µM (inactive). For the same compound, the GI50 [19] was 1.97 µM (inactive) and the GI50 [20] was 3.37 µM (inactive).
